Broadly, the EC50 is the midpoint of the concentration-response curve.

The experiment concerns Phomopsis asparagi (Sacc.). As to the kind of experiment: laboratory toxicity, mycelium growth rate method. The experiment is classed as cell-based. As to conditions: for ATI (actually-determined toxicity index): (EC50 of standard agent/EC50 of agent to be tested)×100, difenoconazole = 100; for EC50: Phomopsis asparagi, pathogenic fungi of asparagus stem blight collected from the field. The protocol:
According to Sun Yunpei method, the synergistic effect of the mixed drug was evaluated based on a cotoxicity coefficient (CTC). […] The subjects to be tested were pathogenic fungi of asparagus stem blight collected from the field. The determination method was conducted with reference to the mycelium growth rate method in “Technical regulation on agricultural construction project acceptance NY/T 1156.6-2006 of the People's Republic of China”.

Take `CC1COC(Cn2cncn2)(c2ccc(Oc3ccc(Cl)cc3)cc2Cl)O1` (stereo not shown) [difenoconazole]: the “ATI (actually-determined toxicity index)” value was found to be 100.00 and the 50% effective concentration (EC50) is 0.088 mg/L.

Regarding `N=C(N)c1ccc(OCCCOc2ccc(C(=N)N)cc2)cc1` [propamidine], the “ATI (actually-determined toxicity index)” value came out at 166.04 and the EC50 was 0.053 mg/L.

(Values after patent publication US20200045969A1, “Fungicidal Composition and Fungicide for Controlling Asparagus Stem Blight” (Institute of Plant Protection, Jiangxi Academy of …, priority 2018, published 2020).)
